Results from patent US8664407B2, “Chemical linkers with single amino acids and conjugates thereof” (Medarex, LLC, priority 2007, dated 2014).

Key:
cathepsin B = molecular target: T1, cathepsin B (Bos taurus, UniProt P07688); assay: Cathepsin B mediated cleavage of single amino acid linkers (RP-HPLC, A340); assay type: biochemical, bovine; conditions: bovine, activated bovine spleen cathepsin B (isolated enzyme), cysteine modified compound, pH 5.0, 37° C., read-out: Approx. substrate half-life (converted)
T1 construct: bovine spleen cathepsin B (Sigma product code C-6286) was prepared by dissolving lyophilized solid; purchased Sigma C-6286; host or cells: bovine spleen (tissue-derived)
Description: (§1) A panel of single amino acid compounds, each differing with respect to amino acid composition but of otherwise similar structure, was assayed for cathepsin B activity. The following compounds were tested: compounds A,B,C,D,E and F. The appearance of cathepsin B-mediated products was monitored by application to RP-HPLC with quantitation of drug products by their absorbance at 340 nm.
(§2) Cathepsin B Enzyme Assay: A stock solution of bovine spleen cathepsin B (Sigma product code C-6286) was prepared by dissolving lyophilized solid (6 mg at 56% protein) in 25 mM sodium acetate/1 mM EDTA pH 5.0 buffer (10 mL). Enzyme activation was accomplished by mixing the stock solution (50 uL) with activation buffer (100 ul) comprised of 30 mM DTT/15 mM EDTA, followed by incubation at room temperature for 15 minutes. The activated cathepsin B was diluted 1:1 with a solution of 25 mM sodium acetate/1 mM EDTA, pH 5.0 prior to use. To assay for drug release, cysteine modified compound (4 uL of 2.5 mM solution in DMSO) was added to 25 mM sodium acetate/1 mM EDTA pH 5.0 buffer (86 uL) and activated cathepsin B (10 uL at 3.6 U/mL). Samples were incubated at 37° C. for appropriate time points and stopped with methanol (100 uL).
(§3) Compounds samples (40 uL) were applied to a Waters 2795 HPLC system fitted with a reverse phase column (Waters Nova-pak C18, 3.9×150 mm column, product code WAT086344). Sample chromatography was accomplished using a dual mobile phase system comprised of water/0.1% TFA (A buffer) and acetonitrile/0.1% TFA (B buffer) with a gradient elution of 10-100% B buffer over 20 min at 1.0 mL/min. compounds were detected by its absorbance at 340 nm (A340).

[1] = molecular target: T2, bovine spleen cathepsin B (Bos taurus, UniProt P07688); assay: as above; assay type: biochemical; conditions: cysteine modified compound, activated cathepsin B, pH 5.0, 37° C.
T2 construct: bovine spleen cathepsin B (Sigma product code C-6286) was prepared by dissolving lyophilized solid; purchased Sigma C-6286; host or cells: bovine spleen (tissue-derived)
Description: as §1, §2, §3

786-O = assay: In vivo study: 786-O tumor xenograft, toxin-conjugated anti-CD70 HuMAb 2H5; conditions: 0.03 μmol toxin dosage, IP, dosed on Day 0; CD70.1 antibody conjugates; 786-O tumors in male CB17.SCID mice
Description: 786-O (ATCC Accession No. CRL-1932) cells were expanded in vitro using standard laboratory procedures. Male CB17.SCID mice (Taconic, Hudson, N.Y.) between 6-8 weeks of age were implanted subcutaneously in the right flank with 2.5 million 786-O in 0.2 ml of PBS/Matrigel (1:1) per mouse. Mice were weighed and measured for tumors three dimensionally using an electronic caliper twice weekly after implantation. Tumor volumes were calculated as height×width×length. Mice with tumors averaging 200 mm^3 were randomized into treatment groups. The mice were dosed intraperitoneally with PBS vehicle, toxin-conjugated isotype control antibody or toxin-conjugated anti-CD70 HuMAb 2H5 on Day 0. Each group contained 8 mice.
FIGS. 1, 2, 5, and 6 show the mean tumor volume versus days past dosing and FIGS. 3, 4, 7, and 8 show the median tumor volume versus days past dosing (0.03 μmol—FIGS. 1, 3, 5, and 7; 0.005 μmol—FIGS. 2, 4, 6, and 8).

Compound | half-life at 100 µM (cathepsin B) [h] | Cathepsin B cleavage [1] | Cathepsin B cleavage ([1]; listed as compound A) | Efficacy (tumor volume versus days past dosing), descending order (786-O) | Cathepsin B cleavage ([1]; listed as compound D)
CN1CCN(C(=O)Oc2cc3c(c4ccccc24)[C@H](CCl)CN3C(=O)c2cc3cc(NC(=O)c4ccc(NC(=O)[C@H](CCCNC(N)=O)NC(=O)CCCCCN5C(=O)C=CC5=O)cc4)ccc3[nH]2)CC1 [Compound A] | ~24 | Yes | cleaved by cathepsin B | Compound E>Compound F>Compound A>Compound C, Compound D>Compound B>Compound G | –
CN1CCN(C(=O)Oc2cc3c(c4ccccc24)[C@H](CCl)CN3C(=O)c2cc3cc(NC(=O)c4ccc(NC(=O)[C@H](CCCNC(N)=O)NCCNC(=O)CCCCCN5C(=O)C=CC5=O)cc4)ccc3[nH]2)CC1 [Compound B] | – | No | – | Compound E>Compound F>Compound A>Compound C, Compound D>Compound B>Compound G | –
CN1CCN(C(=O)Oc2cc3c(c4ccccc24)[C@H](CCl)CN3C(=O)c2cc3c4c(ccc3[nH]2)N(C(=O)c2ccc(NC(=O)[C@H](CCCNC(N)=O)NC(=O)CCCCCN3C(=O)C=CC3=O)cc2)CC4)CC1 [Compound C] | – | No | – | Compound E>Compound F>Compound A>Compound C, Compound D>Compound B>Compound G | –
CN1CCN(C(=O)Oc2cc3c(c4ccccc24)[C@H](CCl)CN3C(=O)c2cc3cc(NC(=O)c4ccc(NC(=O)[C@H](CO)NC(=O)CCCN5C(=O)C=CC5=O)cc4)ccc3[nH]2)CC1 [Compound D] | – | No | – | Compound E>Compound F>Compound A>Compound C, Compound D>Compound B>Compound G | cleaved by cathepsin B
CN1CCN(C(=O)Oc2cc3c(c4ccccc24)[C@H](CCl)CN3C(=O)c2cc3cc(NC(=O)c4ccc(NC(=O)[C@H](CCCCN)NC(=O)CCCCCN5C(=O)C=CC5=O)cc4)ccc3[nH]2)CC1 [Compound E] | ~4 | Yes | – | Compound E>Compound F>Compound A>Compound C, Compound D>Compound B>Compound G | –
CN1CCN(C(=O)Oc2cc3c(c4ccccc24)[C@H](CCl)CN3C(=O)c2cc3cc(NC(=O)c4ccc(NC(=O)[C@H](CCC(=O)O)NC(=O)CCCCCN5C(=O)C=CC5=O)cc4)ccc3[nH]2)CC1 [Compound F] | – | No | – | Compound E>Compound F>Compound A>Compound C, Compound D>Compound B>Compound G | –
CN1CCN(C(=O)Oc2cc3c(c4ccccc24)[C@H](CCl)CN3C(=O)c2cc3cc(NC(=O)c4ccc(NCC(=O)NCCNC(=O)CCCN5C(=O)C=CC5=O)cc4)ccc3[nH]2)CC1 [Compound G] | – | – | – | Compound E>Compound F>Compound A>Compound C, Compound D>Compound B>Compound G | –
